Values quoted from earlier work as cited in patent US9149493B2, “Compositions for bowel cleansing and use thereof” (ALFA WASSERMANN SPA, priority 2011, dated 2015).

Details: administered alone; eliminated unchanged in urine

Substance: citric acid and sodium citrate [citrates]
- absorption of citrates in the small intestine: almost entirely absorbed
